Results as given in US11969436B2, “Method for treating skin irritation caused by parabens” (Kao Corporation, priority 2017, dated 2024).

Experiments:
[1] = tested on: skin of subjects with sensitive skin; assay: Stinging test A, sensory irritation on the cheek of subjects with sensitive skin; assay type: in vivo, human; conditions: nonwoven fabric with 600 μL of 16.4 mM aqueous solution on the cheek, 30 seconds to 5 minutes; FIG. 2
Procedure: Those who met all of the following criteria were selected as subjects with sensitive skin.
The subjects selected were tested for Stinging test A according to the following method.
After washing face with a make-up remover and a face wash, conditioning was performed in an environment of a temperature of 23° C. and a humidity of 50% for 5 minutes or more. A 2 cm×5 cm piece of nonwoven fabric which was impregnated with 600 μL of a 16.4 mM aqueous solution of methyl p-hydroxybenzoate or p-hydroxybenzoic acid was contacted to the cheek. For sensory irritation that the subjects felt (sore, stinging, pricking, smart, hot, flushed) 30 seconds, 1 minute, 2 minutes, 3 minutes, and 5 minutes after the start of the contact, the subjects submitted scores (0: nothing felt, 0.5: slightly felt or slight discomfort, 1.0: a little discomfort, 1.5: a little to moderate discomfort, 2.0: moderate discomfort, 2.5: moderate to much discomfort, 3.0: much or unbearable discomfort). A value obtained by subtracting, from the highest score of all the scores after 30 seconds to 5 minutes, the highest score in a test performed in the same manner as above except for using distilled water was determined as the sensory irritation score, and the sensory irritation score was statistically analyzed by the Nilcoxon signed-rank test.

[2] = tested on: three-dimensional cultured human epidermis model; assay: IL-1α production in three-dimensional cultured human epidermis model (LabCyte EPI-MODEL 24); assay type: cell-based; conditions: 50 μL of 16.4 mM aqueous solution, cultured 6 hours, post-cultured 18 hours; FIG. 1
Procedure: LabCyte EPI-MODEL 24 (made by Japan Tissue Engineering Co., Ltd.) was used as a three-dimensional cultured human epidermis model. The culture insert was pre-cultured (5% CO2, 37° C.) in a 500 μL exclusive assay medium overnight, and the culture insert was transferred to a 24-well plate containing a fresh assay medium. 50 μL of a 16.4 mM aqueous solution of methyl p-hydroxybenzoate (MP) or p-hydroxybenzoic acid (PHBA) was added to the epidermal tissue in the culture insert, and the tissue was cultured for 6 hours. Then the culture insert was washed with phosphate buffer 10 times, and transferred to a 24-well plate containing a fresh assay medium, and post-cultured for 18 hours. After the post-culture, the amount of IL-1α in the medium was determined using Human IL-1 alpha/IL-1F1 Quantikine ELISA Kit (R&D Systems) according to the protocol attached.

CES1 = CES1 mRNA expression in normal human epidermal keratinocytes (real-time PCR, ΔΔ CT method); assay type: cell-based; conditions: 48 hours; for Relative gene expression level (with non treat as 1.0): CES1 mRNA, mean value ± SD, n = 3
Procedure: Normal human epidermal keratinocytes (Life Technologies Japan Ltd.) were seeded into a 6-well plate so that the number of cells in each well was […], and cultured in HuMedia-KG2 (KURABO INDUSTRIES LTD.) overnight. Then, an extract of broccoli sprouts (Broccoli Sprout Extract, Oryza Oil (. Fat Chemical Co., Ltd., for cosmetics) was added to the culture medium at a solid concentration of 0.0001 w/v % or 0.001 w/v %, and the cells were cultured for 48 hours. The ceils after culture was washed with D-PB3 (−) and RNA was extracted using RNeasy Mini Kits (QIAGEN) according to the manual attached. The RNA concentration was calculated by using NanoDrop 1000 (Thermo Fisher Scientific). Total RNA extracted was reverse-transcribed using High-Capacity RNA-to-cDNA Kit (Life Technologies Japan Ltd.), and then real-time PCR was performed using 7500 Fast Real-Time PCR System (Life Technologies Japan Ltd.). In the real-time PCR, the expression levels of CES1 mRNA were compared by the ΔΔ CT method using the above reverse transcribed cDNA and CES1, or, as an endogenous control, Tsqman primer for RPLP0 (Life Technologies Japan Ltd., CES1:Hs00275627-m1, RPLP0:HS00420695_gH), Taqma.n Gene Expression Master Mix (Life Technologies Japan Ltd.).
Normal human epidermal keratinocytes (Life Technologies Japan Ltd.) were seeded into a 6-well plate so that the number of cells in each well was […] and cultured in HuMedia-KG2 (KURABO INDUSTRIES LTD.) overnight. Then, suiforaphane (Sigma-Aldrich) was exposed to the cells so that the final concentration was 0.1, 1, and 10 μM, and the cells were cultured for 48 hours. The cells after culture was washed with a phosphate buffer (D-PBS (−)) and RNA was extracted using RNeasy Mini Kits (QIAGEN) according to the manual attached. The RNA concentration was calculated by using NanoDrop 1000 (Thermo Fisher Scientific). Total RNA extracted was reverse-transcribed using High-Capacity RNA-to-cDNA Kit (Life Technologies Japan Ltd.), and then real-time PCR was performed using 7500 Fast Real-Time PCR System (Life Technologies Japan Ltd.). In the real-time PCR, the expression levels of the gene were compared by the ΔΔ CT method using the above reverse transcribed cDNA and carboxylesterase 1, or, as an endogenous control, Taqman primer for RPLP0 (Life Technologies Japan Ltd., CES1:Hs00275627-m1, RPLP0:HS00420895_gH), Taqman Gene Expression Master Mix (Life Technologies Japan Ltd.).

Structure (SMILES)	sensory irritation score [1]	amount of IL-1α in the medium [2]	Relative gene expression level (with non treat as 1.0) (CES1; sulforaphane 0.1 μM)	Relative gene expression level (with non treat as 1.0) (CES1; sulforaphane 1 μM)	Relative gene expression level (with non treat as 1.0) (CES1; sulforaphane 10 μM)	expression level of CES1 mRNA (CES1; sulforaphane 0.1, 1 and 10 μM, summary of Table 1)
O=C(O)c1ccc(O)cc1 [PHBA, p-hydroxybenzoic acid]	very mild	much smaller than that when MP was used	–	–	–	–
COC(=O)c1ccc(O)cc1 [MP, methyl p-hydroxybenzoate]	felt some irritation	–	–	–	–	–
C[S+]([O-])CCCCN=C=S (stereo not shown) [Sulforaphane, 4-(methylsulfinyl)butyl isothiocyanate]	–	–	1.5 ± 0.33	3.6 ± 0.90	35 ± 8.4	increased the expression level of CES1 mRNA
